The subject of the test is SKOV3 carboplatin-resistant cancers. Description: SKOV3CRLuc subcutaneous xenograft. In kind it is in vivo, athymic nu/nu mice. To be noted: platinum-resistant mouse tumor model.

SMILES strings stand for the structures.

Description: [MUT] and SKOV3CRLuc cells were injected subcutaneously into the athymic nu/nu mice (3×10^6, n=8 for each group). Parental SKOV3Luc cells were used as a negative control. Mice were intraperitoneally (i.p.) injected with [MUT] (red, 2.5 mg/kg/injection) or DMSO (red arrows) using a 3 days-on 4-days off protocol. Carboplatin (30 mg/kg/injection) was administrated i.p. every other day (green arrows). (B) Tumor volume was measured every other day for 25 to 40 days using a caliper, and luminescence activity was evaluated weekly. (C) Endpoint tumor volumes of [MUT], SKOV3Luc, and SKOV3CRLuc xenografts treated with the indicated drug or drug combination. Student's t-test. (D) Representative bioluminescence images of tumor burden in SKOV3CRLuc-innoculated mice treated with indicated drug. Images captured by the IVIS Spectrum at day 35. […] In vivo bioluminescence images were taken at the same time using the IVIS Spectrum. […] We tested the anti-tumor potency of [MUT]

As to `N.N.O=C([O-])C1(C(=O)[O-])CCC1.[Pt+2]` [carboplatin], the “anti-tumor potency (tumor growth)” value is “relatively ineffective”.

The record behind these values is US10800742B2, “Small molecule compounds targeting PBX1 transcriptional complex” (THE JOHNS HOPKINS UNIVERSITY, priority 2015, dated 2020).
